Test results from the NIST ThermoML archive (doi:10.1021/je0340250).
Numbers after ± are expanded uncertainties.

How the values were obtained:
[1] = xn = mol fraction of the nth substance listed

Work on O [water] + C1COCCN1 yielded a surface tension liquid-gas ([1]; 298.15 K, x2 = 0) of 72.01 ± 1.7 mN/m, a surface tension liquid-gas ([1]; 308.15 K, x2 = 0) of 70.41 ± 1.6 mN/m and a surface tension liquid-gas ([1]; 318.15 K, x2 = 0) of 68.79 ± 1.6 mN/m. The surface tension liquid-gas ([1]; 328.15 K, x2 = 0) was 67.17 ± 1.6 mN/m.

With CN1CCOCC1 [N-methylmorpholine] the surface tension liquid-gas (298.15 K) was 28.22 ± 0.69 mN/m, the surface tension liquid-gas (308.15 K) was 27.2 ± 0.67 mN/m and the surface tension liquid-gas (318.15 K) was 26.18 ± 0.64 mN/m. The surface tension liquid-gas (328.15 K) was 25.15 ± 0.62 mN/m.

Molecule O [water] + CN1CCOCC1 has a surface tension liquid-gas ([1]; 298.15 K, x2 = 0) of 72.01 ± 1.7 mN/m, a surface tension liquid-gas ([1]; 308.15 K, x2 = 0) of 70.41 ± 1.6 mN/m and a surface tension liquid-gas ([1]; 318.15 K, x2 = 0) of 68.79 ± 1.6 mN/m. It also gave a surface tension liquid-gas ([1]; 328.15 K, x2 = 0) of 67.17 ± 1.6 mN/m.

C1COCCN1 [tetrahydro-1,4-oxazine] + O gave a surface tension liquid-gas ([1]; 298.15 K, x1 = 0.0125) of 68.36 ± 1.6 mN/m, a surface tension liquid-gas ([1]; 298.15 K, x1 = 0.0155) of 67.66 ± 1.6 mN/m and a surface tension liquid-gas ([1]; 298.15 K, x1 = 0.0251) of 65.41 ± 1.5 mN/m. It also gave a surface tension liquid-gas ([1]; 298.15 K, x1 = 0.0496) of 62.08 ± 1.4 mN/m, a surface tension liquid-gas ([1]; 298.15 K, x1 = 0.06) of 60.89 ± 1.4 mN/m and a surface tension liquid-gas ([1]; 298.15 K, x1 = 0.0735) of 59.6 ± 1.4 mN/m. For the same molecule, the surface tension liquid-gas ([1]; 298.15 K, x1 = 0.0793) was 59.43 ± 1.4 mN/m, the surface tension liquid-gas ([1]; 298.15 K, x1 = 0.0854) was 58.94 ± 1.4 mN/m and the surface tension liquid-gas ([1]; 298.15 K, x1 = 0.0991) was 57.71 ± 1.4 mN/m. The surface tension liquid-gas ([1]; 298.15 K, x1 = 0.2005) was 51.23 ± 1.2 mN/m, the surface tension liquid-gas ([1]; 298.15 K, x1 = 0.2973) was 47.24 ± 1.1 mN/m and the surface tension liquid-gas ([1]; 298.15 K, x1 = 0.3969) was 44.64 ± 1.1 mN/m. For the same molecule, the surface tension liquid-gas ([1]; 298.15 K, x1 = 0.4996) was 43.06 ± 1 mN/m, the surface tension liquid-gas ([1]; 298.15 K, x1 = 0.5977) was 41.55 ± 0.99 mN/m and the surface tension liquid-gas ([1]; 298.15 K, x1 = 0.7005) was 40.33 ± 0.96 mN/m. It also gave a surface tension liquid-gas ([1]; 298.15 K, x1 = 0.8034) of 39.3 ± 0.94 mN/m, a surface tension liquid-gas ([1]; 298.15 K, x1 = 0.9096) of 38.38 ± 0.92 mN/m and a surface tension liquid-gas ([1]; 298.15 K, x1 = 1) of 37.68 ± 0.91 mN/m. It also gave a surface tension liquid-gas ([1]; 308.15 K, x1 = 0.0125) of 66.65 ± 1.6 mN/m, a surface tension liquid-gas ([1]; 308.15 K, x1 = 0.0155) of 65.85 ± 1.5 mN/m and a surface tension liquid-gas ([1]; 308.15 K, x1 = 0.0251) of 63.27 ± 1.5 mN/m. For the same molecule, the surface tension liquid-gas ([1]; 308.15 K, x1 = 0.0496) was 60.05 ± 1.4 mN/m, the surface tension liquid-gas ([1]; 308.15 K, x1 = 0.06) was 58.94 ± 1.4 mN/m and the surface tension liquid-gas ([1]; 308.15 K, x1 = 0.0735) was 57.66 ± 1.3 mN/m. It also gave a surface tension liquid-gas ([1]; 308.15 K, x1 = 0.0793) of 57.69 ± 1.3 mN/m, a surface tension liquid-gas ([1]; 308.15 K, x1 = 0.0854) of 56.56 ± 1.3 mN/m and a surface tension liquid-gas ([1]; 308.15 K, x1 = 0.0991) of 55.42 ± 1.3 mN/m. It also gave a surface tension liquid-gas ([1]; 308.15 K, x1 = 0.2005) of 49.14 ± 1.1 mN/m, a surface tension liquid-gas ([1]; 308.15 K, x1 = 0.2973) of 45.52 ± 1.1 mN/m and a surface tension liquid-gas ([1]; 308.15 K, x1 = 0.3969) of 43.2 ± 1 mN/m. For the same molecule, the surface tension liquid-gas ([1]; 308.15 K, x1 = 0.4996) was 41.7 ± 0.99 mN/m, the surface tension liquid-gas ([1]; 308.15 K, x1 = 0.5977) was 40.25 ± 0.96 mN/m and the surface tension liquid-gas ([1]; 308.15 K, x1 = 0.7005) was 39.12 ± 0.93 mN/m. It also gave a surface tension liquid-gas ([1]; 308.15 K, x1 = 0.8034) of 38.1 ± 0.91 mN/m, a surface tension liquid-gas ([1]; 308.15 K, x1 = 0.9096) of 37.16 ± 0.89 mN/m and a surface tension liquid-gas ([1]; 308.15 K, x1 = 1) of 36.46 ± 0.88 mN/m. For the same molecule, the surface tension liquid-gas ([1]; 318.15 K, x1 = 0.0125) was 64.55 ± 1.5 mN/m, the surface tension liquid-gas ([1]; 318.15 K, x1 = 0.0155) was 66.74 ± 6 mN/m and the surface tension liquid-gas ([1]; 318.15 K, x1 = 0.0251) was 61.14 ± 1.4 mN/m. For the same molecule, the surface tension liquid-gas ([1]; 318.15 K, x1 = 0.0496) was 58.03 ± 1.4 mN/m, the surface tension liquid-gas ([1]; 318.15 K, x1 = 0.06) was 56.98 ± 1.3 mN/m and the surface tension liquid-gas ([1]; 318.15 K, x1 = 0.0735) was 55.72 ± 1.3 mN/m. It also gave a surface tension liquid-gas ([1]; 318.15 K, x1 = 0.0793) of 55.63 ± 1.3 mN/m, a surface tension liquid-gas ([1]; 318.15 K, x1 = 0.0854) of 54.18 ± 1.3 mN/m and a surface tension liquid-gas ([1]; 318.15 K, x1 = 0.0991) of 53.12 ± 1.2 mN/m. It also gave a surface tension liquid-gas ([1]; 318.15 K, x1 = 0.2005) of 47.05 ± 1.1 mN/m, a surface tension liquid-gas ([1]; 318.15 K, x1 = 0.2973) of 43.8 ± 1 mN/m and a surface tension liquid-gas ([1]; 318.15 K, x1 = 0.3969) of 41.75 ± 0.99 mN/m. For the same molecule, the surface tension liquid-gas ([1]; 318.15 K, x1 = 0.4996) was 40.33 ± 0.96 mN/m, the surface tension liquid-gas ([1]; 318.15 K, x1 = 0.5977) was 38.96 ± 0.93 mN/m and the surface tension liquid-gas ([1]; 318.15 K, x1 = 0.7005) was 37.91 ± 0.91 mN/m. It also gave a surface tension liquid-gas ([1]; 318.15 K, x1 = 0.8034) of 36.9 ± 0.89 mN/m, a surface tension liquid-gas ([1]; 318.15 K, x1 = 0.9096) of 35.95 ± 0.87 mN/m and a surface tension liquid-gas ([1]; 318.15 K, x1 = 1) of 35.24 ± 0.85 mN/m. It also gave a surface tension liquid-gas ([1]; 328.15 K, x1 = 0.0125) of 62.68 ± 1.5 mN/m, a surface tension liquid-gas ([1]; 328.15 K, x1 = 0.0155) of 61.8 ± 1.4 mN/m and a surface tension liquid-gas ([1]; 328.15 K, x1 = 0.0251) of 59 ± 1.4 mN/m. For the same molecule, the surface tension liquid-gas ([1]; 328.15 K, x1 = 0.0496) was 56 ± 1.3 mN/m, the surface tension liquid-gas ([1]; 328.15 K, x1 = 0.06) was 55.03 ± 1.3 mN/m and the surface tension liquid-gas ([1]; 328.15 K, x1 = 0.0735) was 53.78 ± 1.3 mN/m. It also gave a surface tension liquid-gas ([1]; 328.15 K, x1 = 0.0793) of 53.65 ± 1.3 mN/m, a surface tension liquid-gas ([1]; 328.15 K, x1 = 0.0854) of 51.8 ± 1.2 mN/m and a surface tension liquid-gas ([1]; 328.15 K, x1 = 0.0991) of 50.83 ± 1.2 mN/m. It also gave a surface tension liquid-gas ([1]; 328.15 K, x1 = 0.2005) of 44.96 ± 1.1 mN/m, a surface tension liquid-gas ([1]; 328.15 K, x1 = 0.2973) of 42.09 ± 0.99 mN/m and a surface tension liquid-gas ([1]; 328.15 K, x1 = 0.3969) of 40.31 ± 0.95 mN/m. The surface tension liquid-gas ([1]; 328.15 K, x1 = 0.4996) was 38.97 ± 0.93 mN/m, the surface tension liquid-gas ([1]; 328.15 K, x1 = 0.5977) was 37.66 ± 0.9 mN/m and the surface tension liquid-gas ([1]; 328.15 K, x1 = 0.7005) was 36.7 ± 0.88 mN/m. The surface tension liquid-gas ([1]; 328.15 K, x1 = 0.8034) was 35.69 ± 0.86 mN/m, the surface tension liquid-gas ([1]; 328.15 K, x1 = 0.9096) was 34.73 ± 0.84 mN/m and the surface tension liquid-gas ([1]; 328.15 K, x1 = 1) was 34.02 ± 0.83 mN/m.
